The text below walks through data of patent publication US8536336B2, “Prodrug compounds useful as cannabinoid ligands” (AbbVie Inc., priority 2009, dated 2013).

Data set [1] in a line: Solubility of prodrug in water or 0.1 N aqueous HCl (HPLC of filtrate). Particulars: thermodynamic from solid.
Protocol: (§1) Approximately 3 mg of prodrug was weighed into a vial and 750 μL of water or 0.1 N aqueous HCl was added. The mixtures were vortexed to wet the solids. The mixtures were equilibrated for 1 hour with gentle agitation in a constant temperature water bath (T=25° C. for water samples and T=37° C. for 0.1 N HCl samples). After equilibration, the mixtures were visually inspected to assure that the amount of excess solid was sufficient to permit re-characterization. If not, solubility was reported as greater than the weighed concentration of prodrug (concentrations were confirmed by HPLC). The solid phase was then separated from the liquid phase by filtration through a 13 mm 0.45 μm GHP syringe filter (Pall Corporation). The filtrate was diluted as needed for quantification of the material studied by HPLC, and the concentration of the filtrate was reported as the solubility of the prodrug in the given medium.
Data set [2] in a line: physchem. Particulars: thermodynamic from solid.
Protocol: as §1
Data set [3] in a line: In vivo regeneration of the parent compound after oral dosing of prodrug (plasma, HPLC-MS/MS). On the set-up: species or system Sprague-Dawley rats. Particulars: rat, oral aqueous formulation by gavage, blood samples for 24 hours. How it is done: Male Sprague-Dawley rats, weighing 250-400 g, were obtained from Charles Rivers Laboratories. For the initial screening, each prodrug was evaluated in one group of three rats. All rats received an oral aqueous formulation (suspension or solution), administered by gavage. Sequential blood samples were obtained from a tail vein of each animal for 24 hours after dosing. Plasma was separated by centrifugation and stored frozen until analysis. Compounds were selectively removed from the plasma using protein precipitation followed by reverse phase HPLC with MS/MS detection for quantitation. Attempts were made to measure both the prodrug and the parent compounds in each sample.

Setting [4] is: 0.1 N aqueous HCl, 37 °C, simulated gastric fluid.

Converted amounts (≈) assume the structure as drawn.

For `CCCCn1/c(=N/C(=O)c2cc(C(F)(F)F)ccc2OC[C@H](C)O)sc2cc[n+](COC(C)=O)cc21.[Br-]` [Example 1, (2Z)-5-[(acetyloxy)methyl]-3-butyl-2-{[2-{[(2S)-2-hydroxypropyl]oxy}-5-(trifluoromethyl)benzoyl]imino}-2,3-dihydro[1,3]thiazolo[4,5-c]pyridin-5-ium bromide], the solubility at 1 h in data set [1] (setting [4]) is 2500 µg/mL; in data set [1] (water, 25 °C) it was 1800 µg/mL.
On the same counts, the results for `CCCCn1/c(=N/C(=O)c2cc(C(F)(F)F)ccc2OC[C@H](C)OC(=O)C(C)(C)N)sc2ccncc21` [Example 2, (1S)-2-[2-({[(2Z)-3-butyl[1,3]thiazolo[4,5-c]pyridin-2(3H)-ylidene]amino}carbonyl)-4-(trifluoromethyl)phenoxy]-1-methylethyl 2-methylalaninate] are 4100 µg/mL (≈ 7610 µM) and 2300 µg/mL (≈ 4270 µM).
Take `CCCCn1/c(=N/C(=O)c2cc(C(F)(F)F)ccc2OC[C@H](C)OC(=O)CN)sc2ccncc21` [Example 3, (1S)-2-[2-({[(2Z)-3-butyl[1,3]thiazolo[4,5-c]pyridin-2(3H)-ylidene]amino}carbonyl)-4-(trifluoromethyl)phenoxy]-1-methylethyl glycinate]: the solubility at 1 h in data set [2] (25 °C, water) is 1200 µg/mL (≈ 2350 µM); in data set [2] (37 °C, simulated gastric fluid), above 4100 µg/mL.
On to `CCCCn1/c(=N/C(=O)c2cc(C(F)(F)F)ccc2OC[C@H](C)O)sc2cc[n+](COC(=O)C(C)(C)C)cc21.[Cl-]` [Example 4, (2Z)-3-butyl-5-{[(2,2-dimethylpropanoyl)oxy]methyl}-2-{[2-{[(2S)-2-hydroxypropyl]oxy}-5-(trifluoromethyl)benzoyl]imino}-2,3-dihydro[1,3]thiazolo[4,5-c]pyridin-5-ium chloride], for which the solubility at 1 h was 200 µg/mL in data set [1] (setting [4]) and 3300 µg/mL in data set [1] (water, 25 °C).
On the same counts, the results for `CCCCn1/c(=N/C(=O)c2cc(C(F)(F)F)ccc2OC[C@H](C)O)sc2cc[n+](COC(=O)c3ccccc3)cc21.[Cl-]` [Example 5, (2Z)-5-[(benzoyloxy)methyl]-3-butyl-2-{[2-{[(2S)-2-hydroxypropyl]oxy}-5-(trifluoromethyl)benzoyl]imino}-2,3-dihydro[1,3]thiazolo[4,5-c]pyridin-5-ium chloride] are 16 µg/mL and 740 µg/mL.
In the case of `CCCCn1/c(=N/C(=O)c2cc(C(F)(F)F)ccc2OC[C@H](C)OC(=O)[C@H](C)N)sc2ccncc21` [Example 6, (1S)-2-[2-({[(2Z)-3-butyl[1,3]thiazolo[4,5-c]pyridin-2(3H)-ylidene]amino}carbonyl)-4-(trifluoromethyl)phenoxy]-1-methylethyl L-alaninate], the solubility at 1 h in data set [1] (setting [4]) was above 4100 µg/mL; in data set [1] (water, 25 °C) it was 2300 µg/mL (≈ 4380 µM).
For `CCCCn1/c(=N/C(=O)c2cc(C(F)(F)F)ccc2OC[C@H](C)O)sc2cc[n+](COC(=O)N3CCC[C@H]3C(=O)OC)cc21.[Cl-]` [Example 7, (2Z)-3-butyl-2-{[2-{[(2S)-2-hydroxypropyl]oxy}-5-(trifluoromethyl)benzoyl]imino}-5-[({[(2S)-2-(methoxycarbonyl)pyrrolidin-1-yl]carbonyl}oxy)methyl]-2,3-dihydro[1,3]thiazolo[4,5-c]pyridin-5-ium chloride], in that order: above 4300 µg/mL and above 4300 µg/mL.
On the same counts, the results for `CCCCn1/c(=N/C(=O)c2cc(C(F)(F)F)ccc2OC[C@H](C)O)sc2cc[n+](COC(=O)N(C)C)cc21.[Cl-]` [Example 8, (2Z)-3-butyl-5-({[(dimethylamino)carbonyl]oxy}methyl)-2-{[2-{[(2S)-2-hydroxypropyl]oxy}-5-(trifluoromethyl)benzoyl]imino}-2,3-dihydro[1,3]thiazolo[4,5-c]pyridin-5-ium chloride] are above 4000 µg/mL and 3900 µg/mL.
On the same counts, the results for `CCCCn1/c(=N/C(=O)c2cc(C(F)(F)F)ccc2OC[C@H](C)OP(=O)(O)O)sc2ccncc21` [Example 9, (1S)-2-[2-({[(2Z)-3-butyl[1,3]thiazolo[4,5-c]pyridin-2(3H)-ylidene]amino}carbonyl)-4-(trifluoromethyl)phenoxy]-1-methylethyl dihydrogen phosphate] are 7 µg/mL and 830 µg/mL.
For `CCCCn1/c(=N/C(=O)c2cc(C(F)(F)F)ccc2OC[C@H](C)O)sc2cc[n+]([O-])cc21` [Example 12, N-[(2Z)-3-butyl-5-oxido[1,3]thiazolo[4,5-c]pyridin-2(3H)-ylidene]-2-{[(2S)-2-hydroxypropyl]oxy}-5-(trifluoromethyl)benzamide], in data set [3], the “Parent (Example 18) detected in plasma after dosing the prodrug” value was “Measurable concentrations” and the “Prodrug detected in plasma after dosing the prodrug” value was “Measurable concentrations”.
For `CCCCn1/c(=N/C(=O)c2cc(C(F)(F)F)ccc2OC[C@H](C)OC(=O)CCC(=O)O)sc2ccncc21` [Example 14, 4-({(1S)-2-[2-({[(2Z)-3-butyl[1,3]thiazolo[4,5-c]pyridin-2(3H)-ylidene]amino}carbonyl)-4-(trifluoromethyl)phenoxy]-1-methylethyl}oxy)-4-oxobutanoic acid], the solubility at 1 h was 73 µg/mL (≈ 132 µM) in data set [2] (25 °C, water) and 10 µg/mL (≈ 18.1 µM) in data set [2] (37 °C, simulated gastric fluid).
Consider `CCCCn1/c(=N/C(=O)c2cc(C(F)(F)F)ccc2OC[C@H](C)OC(=O)NCCN(C)C)sc2ccncc21` [Example 15, (1S)-2-[2-({[(2Z)-3-butyl[1,3]thiazolo[4,5-c]pyridin-2(3H)-ylidene]amino}carbonyl)-4-(trifluoromethyl)phenoxy]-1-methylethyl 2-(dimethylamino)ethylcarbamate], for which, in data set [3], the “Parent (Example 18) detected in plasma after dosing the prodrug” value was “Measurable concentrations”. The “Prodrug detected in plasma after dosing the prodrug” value in data set [3] is reported as “Measurable concentrations”. Moreover, the solubility at 1 h in data set [1] (setting [4]) is above 4000 µg/mL; in data set [1] (water, 25 °C) it was 680 µg/mL (≈ 1200 µM).
For `CCCCn1/c(=N/C(=O)c2cc(C(F)(F)F)ccc2OC[C@H](C)O)sc2ccncc21` [Example 18, N-[(2Z)-3-butyl[1,3]thiazolo[4,5-c]pyridin-2(3H)-ylidene]-2-{[(2S)-2-hydroxypropyl]oxy}-5-(trifluoromethyl)benzamide], the solubility at 1 h was 4.3 µg/mL (≈ 9.48 µM) in data set [1] (setting [4]) and below 0.02 µg/mL in data set [1] (water, 25 °C).

In general, solubility refers to the concentration that dissolves in the medium under given conditions.
